Laboratory results: ChEMBL document CHEMBL5380782, “Design, Biological Evaluation, and Computer-Aided Analysis of Dihydrothiazepines as Selective Antichlamydial Agents” (J Med Chem, 2023)

Experiments:
[1] = Mutagenicity in Salmonella typhimurium TA98 assessed as number of revertants per plate at 1500 ug pretreated for 90 mins measured after 66 hrs by AMES test (reference value: 25.67 +/- 5.51); assay type: toxicity, Salmonella enterica subsp. enterica serovar Typhimurium; settings: in vivo, 67.5 h, dose 1500 µg
[2] = Mutagenicity in Salmonella typhimurium TA100 assessed as mutagenic index ratio at 150 ug pretreated for 90 mins measured after 66 hrs by AMES test; assay type: toxicity, Salmonella enterica subsp. enterica serovar Typhimurium; settings: in vivo, 67.5 h, dose 150 µg
[3] = Mutagenicity in Salmonella typhimurium TA98 assessed as number of revertants per plate at 150 ug pretreated for 90 mins measured after 66 hrs in presence of S9 fraction by AMES test (reference value: 24.33 +/- 9.50); assay type: toxicity, subcellular, Salmonella enterica subsp. enterica serovar Typhimurium; settings: s9, 67.5 h, dose 150 µg
Escherichia coli = assay: Antimicrobial activity against Escherichia coli K12 assessed as microbial growth inhibition incubated for 24 hrs by TTC staining based assay; assay type: functional
[4] = Mutagenicity in Salmonella typhimurium TA98 assessed as mutagenic index ratio at 500 ug pretreated for 90 mins measured after 66 hrs by AMES test; assay type: toxicity, Salmonella enterica subsp. enterica serovar Typhimurium; settings: in vivo, 67.5 h, dose 500 µg
[5] = tested on: Bacteroides thetaiotaomicron; assay: Antimicrobial activity against Bacteroides thetaiotaomicron DSM 2079 assessed as microbial growth inhibition incubated for 48 hrs; assay type: functional
[6] = Mutagenicity in Salmonella typhimurium TA100 assessed as mutagenic index ratio at 5000 ug pretreated for 90 mins measured after 66 hrs by AMES test; assay type: toxicity, Salmonella enterica subsp. enterica serovar Typhimurium; settings: in vivo, 67.5 h, dose 5000 µg
[7] = Mutagenicity in Salmonella typhimurium TA100 assessed as number of revertants per plate at 1500 ug pretreated for 90 mins measured after 66 hrs in presence of S9 by AMES test (reference value: 201 +/- 9.90); assay type: toxicity, Salmonella enterica subsp. enterica serovar Typhimurium; settings: in vivo, 67.5 h, dose 1500 µg
Chlamydia trachomatis [8] = assay: Antibacterial activity against Chlamydia trachomatis serovar L2 infected in HEp-2 cells assessed as bacterial growth inhibition incubated for 16 hrs by IFA assay; assay type: functional, organism-based; settings: serovar L2, HEp-2, 16 h
Blautia producta = assay: Antimicrobial activity against Blautia producta DSM 2950 assessed as microbial growth inhibition incubated for 48 hrs; assay type: functional
[9] = Cytotoxicity against HEK293 cells assessed as cell survival at 256 ug/ml incubated for 20 hrs by XTT assay relative to control; assay type: toxicity, cell-based; settings: human, at 256 µg/mL, read-out: Survival
[10] = tested on: Lactiplantibacillus plantarum; assay: Antimicrobial activity against Lactobacillus plantarum DSM 20174 assessed as microbial growth inhibition incubated for 24 hrs; assay type: functional
[11] = Mutagenicity in Salmonella typhimurium TA98 assessed as mutagenic index ratio at 150 ug pretreated for 90 mins measured after 66 hrs by AMES test; assay type: toxicity, Salmonella enterica subsp. enterica serovar Typhimurium; settings: in vivo, 67.5 h, dose 150 µg
[12] = Cytotoxicity against HEK293 cells assessed as cell viability at 25 ug/ml incubated for 20 hrs by XTT assay relative to control; assay type: toxicity, cell-based; settings: human, at 25 µg/mL, read-out: Activity
[13] = Mutagenicity in Salmonella typhimurium TA98 assessed as number of revertants per plate at 150 ug pretreated for 90 mins measured after 66 hrs by AMES test (reference value: 25.67 +/- 5.51); assay type: toxicity, Salmonella enterica subsp. enterica serovar Typhimurium; settings: in vivo, 67.5 h, dose 150 µg
[14] = Mutagenicity in Salmonella typhimurium TA100 assessed as number of revertants per plate at 5000 ug pretreated for 90 mins measured after 66 hrs by AMES test (reference value: 206 +/- 7.07); assay type: toxicity, Salmonella enterica subsp. enterica serovar Typhimurium; settings: in vivo, 67.5 h, dose 5000 µg
[15] = Cytotoxicity against HEC-1-A cells assessed as cell survival at 256 ug/ml incubated for 20 hrs by XTT assay relative to control; assay type: toxicity, cell-based; settings: human, at 256 µg/mL, read-out: Survival
Candida albicans = assay: Antimicrobial activity against Candida albicans 90028 assessed as microbial growth inhibition by broth microdilution method; assay type: functional
[16] = Mutagenicity in Salmonella typhimurium TA98 assessed as number of revertants per plate at 5000 ug pretreated for 90 mins measured after 66 hrs in presence of S9 fraction by AMES test (reference value: 24.33 +/- 9.50); assay type: toxicity, subcellular, Salmonella enterica subsp. enterica serovar Typhimurium; settings: s9, 67.5 h, dose 5000 µg
[17] = Mutagenicity in Salmonella typhimurium TA100 assessed as number of revertants per plate at 1500 ug pretreated for 90 mins measured after 66 hrs by AMES test (reference value: 206 +/- 7.07); assay type: toxicity, Salmonella enterica subsp. enterica serovar Typhimurium; settings: in vivo, 67.5 h, dose 1500 µg
[18] = Mutagenicity in Salmonella typhimurium TA100 assessed as mutagenic index ratio at 1500 ug pretreated for 90 mins measured after 66 hrs in presence of S9 by AMES test; assay type: toxicity, Salmonella enterica subsp. enterica serovar Typhimurium; settings: in vivo, 67.5 h, dose 1500 µg
[19] = Mutagenicity in Salmonella typhimurium TA98 assessed as number of revertants per plate at 1500 ug pretreated for 90 mins measured after 66 hrs in presence of S9 fraction by AMES test (reference value: 24.33 +/- 9.50); assay type: toxicity, subcellular, Salmonella enterica subsp. enterica serovar Typhimurium; settings: s9, 67.5 h, dose 1500 µg
[20] = Mutagenicity in Salmonella typhimurium TA98 assessed as mutagenic index ratio at 500 ug pretreated for 90 mins measured after 66 hrs in presence of S9 fraction by AMES test; assay type: toxicity, subcellular, Salmonella enterica subsp. enterica serovar Typhimurium; settings: s9, 67.5 h, dose 500 µg
Chlamydia trachomatis [21] = assay: Antibacterial activity against Chlamydia trachomatis L2 infected in HEp-2 cells assessed as reduction in number of chlamydial inclusion at 3.12 ug/ml incubated for 24 hrs by fluorescence microscopy relative to control; assay type: functional; parameters: scale not given: the % may be the effect or the level left; settings: dose 3.12 µg/ml
[22] = Mutagenicity in Salmonella typhimurium TA98 assessed as mutagenic index ratio at 50 ug pretreated for 90 mins measured after 66 hrs in presence of S9 fraction by AMES test; assay type: toxicity, subcellular, Salmonella enterica subsp. enterica serovar Typhimurium; settings: s9, 67.5 h, dose 50 µg
[23] = Mutagenicity in Salmonella typhimurium TA98 assessed as mutagenic index ratio at 1500 ug pretreated for 90 mins measured after 66 hrs in presence of S9 fraction by AMES test; assay type: toxicity, subcellular, Salmonella enterica subsp. enterica serovar Typhimurium; settings: s9, 67.5 h, dose 1500 µg
[24] = Mutagenicity in Salmonella typhimurium TA100 assessed as number of revertants per plate at 500 ug pretreated for 90 mins measured after 66 hrs in presence of S9 by AMES test (reference value: 201 +/- 9.90); assay type: toxicity, Salmonella enterica subsp. enterica serovar Typhimurium; settings: in vivo, 67.5 h, dose 500 µg
[25] = Mutagenicity in Salmonella typhimurium TA98 assessed as number of revertants per plate at 50 ug pretreated for 90 mins measured after 66 hrs by AMES test (reference value: 25.67 +/- 5.51); assay type: toxicity, Salmonella enterica subsp. enterica serovar Typhimurium; settings: in vivo, 67.5 h, dose 50 µg
[26] = Mutagenicity in Salmonella typhimurium TA100 assessed as number of revertants per plate at 5000 ug pretreated for 90 mins measured after 66 hrs in presence of S9 by AMES test (reference value: 201 +/- 9.90); assay type: toxicity, Salmonella enterica subsp. enterica serovar Typhimurium; settings: in vivo, 67.5 h, dose 5000 µg
[27] = tested on: Lacticaseibacillus rhamnosus; assay: Antimicrobial activity against Lactobacillus rhamnosus CGMCC 1.3724 assessed as microbial growth inhibition incubated for 24 hrs by TTC staining based assay; assay type: functional
[28] = Mutagenicity in Salmonella typhimurium TA100 assessed as mutagenic index ratio at 5000 ug pretreated for 90 mins measured after 66 hrs in presence of S9 by AMES test; assay type: toxicity, Salmonella enterica subsp. enterica serovar Typhimurium; settings: in vivo, 67.5 h, dose 5000 µg
Chlamydia trachomatis [29] = assay: Antibacterial activity against Chlamydia trachomatis L2 infected in HEp-2 cells assessed as reduction in number of chlamydial inclusion incubated for 24 hrs by fluorescence microscopy; assay type: functional, organism-based; settings: dose 1.56-12.5 µg/ml

N#Cc1ccccc1C1Sc2ccccc2NC2=C1C(=O)c1ccccc12 (stereo not drawn)
Activity [1]: 39
Ratio [2]: 0.91
Activity [3]: 35
MIC (Escherichia coli): > 125 µg/mL
Ratio [4]: 1.48
MIC [5]: > 125 µg/mL
Ratio [6]: 1.16
Activity [7]: 198.5
IC50 (Chlamydia trachomatis [8]; read-out: IC50): 1.61 µg/mL
IC50 (Chlamydia trachomatis [8]; read-out: pIC50 (converted)): 4.37 µM
MIC (Blautia producta): > 125 µg/mL
viability at 20 h, 256 ug/ml [9]: ≥ 75%
MIC [10]: > 125 µg/mL
Ratio [11]: 1.34
viability at 20 h, 25 ug/ml [12]: 84%
Activity [13]: 34.5
Activity [14]: 241
viability at 20 h, 256 ug/ml [15]: ≥ 75%
MIC (Candida albicans): > 1000 µg/mL
Activity [16]: 43.5
Activity [17]: 241
Ratio [18]: 0.98
Activity [19]: 30.5
Ratio [20]: 1.78
Activity (Chlamydia trachomatis [21]): <60%
Ratio [22]: 1.31
Ratio [23]: 1.25
Activity [24]: 191.5
Activity [25]: 26
Activity [26]: 227
MIC [27]: > 125 µg/mL
Ratio [28]: 1.12
Activity (Chlamydia trachomatis [29]): Dose-Dependent Effect
